From US4818441A, “Quinine derivatines” (Takeda Chemical Industries, Ltd., priority 1979, dated 1989)

What was measured:
[1] = system: ubiquinone-deficient enzyme preparation from beef heart mitochondria (succinate oxidase); assay: Electron transport activity (succinate oxidase activity of ubiquinone-deficient enzyme preparation); type: biochemical; conditions: level of addition 5 n mole; control 7.1 ± 2.8
Protocol: Thus, the compound of this invention was added to a ubiquinone-deficient enzyme preparation made from beef heart mitochondria and the electron transport activity was investigated by assaying the succinate oxidase activity.
*The ubiquinonedeficient enzyme preparation was prepared from beef heart
mitochondria in accordance with the method of Lester and Fleischer
(Biochem. Biophys. Acta, 47, 358, 1961). The electron transport activity
was investigated by assaying the succinate oxidase activity.
**The composition of the reaction system (2 ml) was as follows. 0.2 M
sucrose, 10 mM TrisHCl (pH 7.4), 20 mM KCl, 3 mM MgCl2, […]
2Na, enzyme protein 1.99 mg, 50 μM potassium succinate, cytochrome C
0.2 mg. 1% Nikkol OP10 (produced by Nikko Chemicals Co. Ltd.) 5 μl
(control group) or 5 μl of a 1 mM solution of the test compound in 1%
Nikkol OP10. The oxygen consumption of this solution was measured with an
oxygen electrode device (Gilson Medical Electronics' Inc.).

[2] = system: rats with spontaneous hypertension (Ta:SHR); assay: Blood pressure of Ta:SHR, oral gavage; type: in vivo, rat; conditions: 10 mg/kg/day oral gavage, mean ± standard error
Protocol: (§1) Thus, 21-week rats with spontaneous hypertension (Ta:SHR) were organized into groups of 8 to 10 individuals each, and one of the present compounds, i.e. 6-(6-hydroxy-3-methyl-3-hexenyl)-2,3-dimethoxy-5-methyl-1,4-benzoquinone (formula (I) wherein R:H3 CO, n:O, R2 :H, R1 :(CH2)3 OH, α β:double bond), and, as controls, ubiquinone homologs (ubiquinone-7 and ubiquinone-10) were each administered by oral gavage in doses of 10 mg/kg/day for 2 weeks (except on Sunday) or administered as incorporated in feed at the rate of 6 to 16 mg/kg/day for 4 weeks. Blood pressures were measured every week, and as for the oral gavage administration group, the blood was withdrawn from the abdominal aorta at the end of the administration period while each animal was kept under anesthesia with pentobarbital sodium (30 mg/kg, intraperitoneal). Then, the kidneys, liver, heart and adrenals were enucleated and weighed. At two weeks in the case of the oral gavage administration group (Table 3) or during week-1 through week-4 in the case of the feed incorporation group (Table 4), antihypertensive effects were observed. […] Since it is generally acknowledged that, in the case of ubiquinone homologs, such hypotensive effects are attributable to a depression of the ubiquinone (Q) deficiency in mitochondria, the degree of Q deficiency of heart mitochondria was investigated in 6 cases showing blood pressures over 230 mmHg in the control group and 6 cases showing blood pressures under 212 mmHg in the group dosed with the present compound.

[3] = system: rats with spontaneous hypertension (Ta:SHR); assay: Blood pressure of Ta:SHR, incorporated in feed; type: in vivo, rat; conditions: 6-16 mg/kg/day in feed, mean ± standard error
Protocol: as §1

Rat liver lysosome = assay: Lysosomal membrane stabilizing activity (release of β-glucuronidase and acid phosphatase); type: biochemical; conditions: 37° C., 90 minutes
Protocol: (1) Rat liver lysosome was incubated at 37° C. for 90 minutes and the activities of β-glucuronidase and acid phosphatase released from the lysosome due to instabilization of the membrane during that time were assayed and compared with the results obtained in the absence of the test compound. The test compound was added as dissolved in dimethylformamide.

[4] = system: beef heart muscle phosphodiesterase; assay: Phosphodiesterase inhibitory activity; type: biochemical; conditions: 1 mM
Source text: Since lysosomal membrane-stabilizing activity is developed through adenosine-[…]-cyclic monophosphate (c-AMP) of tissue cells, the action of compound (I) on c-AMP phosphodiesterase, the c-AMP decomposing enzyme, was investigated. […] Therefore, it was confirmed, if only from this fact, that the compound according to this invention has a membrane-stabilizing activity.
(2) The rate of decomposition of adenosine-[…]-cyclic phosphate by beef heart muscle phosphodiesterase was compared with the rate found in the absence of the test compound.

[5] = system: isolated guinea pig trachea; assay: Tracheal muscle relaxant activity; conditions: Cavia porcellus, relaxant effect of noradrenaline taken as 100, read-out: Tracheal muscle relaxant action; for Emax at 30 µg/mL: 3 × 10^-5 g/ml; for Emax at 100 µg/mL: 10^-4 g/ml
Protocol: Thus, the isolated guinea pig trachea was cut into a strip in accordance with the method of Kiyomoto et al. [Yamaura Y. ed. "Zensoku (Asthma)", Kodansha, Tokyo, p. 152, 1974 (Japanese language)], set up in a Magnus device and kept at constant contraction with potassium chloride solution five times the concentration of Tyrode solution. Under the above conditions, a solution of the drug in DMF was added and the muscle relaxant effect was recorded on a kymograph.
^(1) With the relaxant effect of noradrenaline being taken as 100.

Row | SMILES | % Inhibition on release of acid phosphatase (Rat liver lysosome; 2 × 10^-4 M) [%] | % Inhibition on release of β-Glucuronidase (Rat liver lysosome; 2 × 10^-4 M) [%] | Action on phosphodiesterase % Inhibition [4] [%] | further results
1 | COC1=C(OC)C(=O)C(C/C=C(\C)CC/C=C(\C)CC/C=C(\C)CO)=C(C)C1=O |  |  |  | Succinate oxidase activity [oxygen consumption] [1]: 42.4 ± 6.3 (n atoms oxygen) min. per mg p
2 | COC1=C(OC)C(=O)C(C/C=C(\C)CC/C=C(\C)CO)=C(C)C1=O |  |  |  | Succinate oxidase activity [oxygen consumption] [1]: 35.5 ± 3.5 (n atoms oxygen) min. per mg p
3 | COC1=C(OC)C(=O)C(CC=C(C)CCCC(C)(C)O)=C(C)C1=O |  |  |  | Succinate oxidase activity [oxygen consumption] [1]: 21.4 (n atoms oxygen) min. per mg p
4 | COC1=C(OC)C(=O)C(C/C=C(\C)CC/C=C(\C)CC/C=C(\C)CC/C=C(\C)CC/C=C(\C)CC/C=C(\C)CCC=C(C)C)=C(C)C1=O [Ubiquinone-7, ubiquinone-7, reference compound] |  |  |  | Blood pressure ([2]; week 0): 199 ± 9 mmHg; Blood pressure ([2]; week 1): 204 ± 9 mmHg; Blood pressure ([2]; week 2): 206 ± 11 mmHg
5 | COC1=C(OC)C(=O)C(C/C=C(\C)CC/C=C(\C)CC/C=C(\C)CC/C=C(\C)CC/C=C(\C)CC/C=C(\C)CC/C=C(\C)CC/C=C(\C)CC/C=C(\C)CCC=C(C)C)=C(C)C1=O [Ubiquinone-10, ubiquinone-10] |  |  |  | Blood pressure ([3]; week 0): 206 ± 16 mmHg; Blood pressure ([3]; week 1): 191 ± 14 mmHg; Blood pressure ([3]; week 2): 187 ± 10 mmHg; Blood pressure ([3]; week 3): 199 ± 17 mmHg; Blood pressure ([3]; week 4): 205 ± 13 mmHg
6 | COC1=C(OC)C(=O)C(CC(O)C(C)C(=O)O)=C(C)C1=O (centres unmarked) [drawing 11 R#1] | 49 | 18 | 60 | 
7 | CC1=C(C)C(=O)C(CC(O)C(C)C(=O)O)=C(C)C1=O (centres unmarked) [drawing 11 R#2] | 48 | 29 | 20 | 
8 | CC1=C(CC(O)C(C)C(=O)O)C(=O)c2ccccc2C1=O (centres unmarked) [drawing 11 R#3] | 35 | 15 | 40 | 
9 | COC1=C(OC)C(=O)C(C/C=C(\C)C(=O)O)=C(C)C1=O [drawing 13 R#1] | 44 | 36 | 47 | 
10 | CC1=C(C)C(=O)C(C/C=C(\C)C(=O)O)=C(C)C1=O [drawing 13 R#2] | 40 | 36 | 42 | 
11 | CC1=C(C/C=C(\C)C(=O)O)C(=O)c2ccccc2C1=O [drawing 13 R#3] |  |  | 86 | 
12 | CC1=C(C)C(=O)C(C/C=C(\C)CO)=C(C)C1=O [drawing 15 R#1] | 32 | 37 | 41 | 
13 | CC1=C(C/C=C(\C)CO)C(=O)c2ccccc2C1=O [drawing 15 R#2] | 39 | 37 | 55 | 
14 | COC1=C(OC)C(=O)C(C/C=C(\C)CCCO)=C(C)C1=O [drawing 17 R#1] | 37 | 28 | 84 | 
15 | CC1=C(C)C(=O)C(C/C=C(\C)CCCO)=C(C)C1=O [drawing 17 R#2] |  |  | 53 | % Inhibition on release of acid phosphatase (Rat liver lysosome; 2 × 10^-5 M): 34%; % Inhibition on release of β-Glucuronidase (Rat liver lysosome; 2 × 10^-5 M): 23%
16 | CC1=C(C/C=C(\C)CCCO)C(=O)c2ccccc2C1=O [drawing 17 R#3] |  |  |  | % Inhibition on release of acid phosphatase (Rat liver lysosome; 2 × 10^-5 M): 36%; % Inhibition on release of β-Glucuronidase (Rat liver lysosome; 2 × 10^-5 M): 25%
17 | COC1=C(OC)C(=O)C(CCC(C)CO)=C(C)C1=O (centres unmarked) [drawing 19 R: H3 CO] | 43 | 38 | 38 | 
18 | CC1=C(C)C(=O)C(CCC(C)CO)=C(C)C1=O (centres unmarked) [drawing 19 R: H3 C] | 21 | 29 | 44 | 
19 | CC(=CCC1=C(C)C(=O)C(C)=C(C)C1=O)CCC=C(C)CCC(C)(C)O [drawing 20 R#1] | 16 | 20 | 18 | 
20 | CC(=CCC1=C(C)C(=O)c2ccccc2C1=O)CCC=C(C)CCC(C)(C)O [drawing 20 R#2] |  |  | 29 | % Inhibition on release of acid phosphatase (Rat liver lysosome; 2 × 10^-5 M): 9%; % Inhibition on release of β-Glucuronidase (Rat liver lysosome; 2 × 10^-5 M): 18%
21 | COC1=C(OC)C(=O)C(C/C=C(\C)CCCO)=C(C)C1=O [drawing 24] |  |  |  | Succinate oxidase activity [oxygen consumption] [1]: 18.2 (n atoms oxygen) min. per mg p
22 | COC1=C(OC)C(=O)C(CCC(C)CO)=C(C)C1=O (centres unmarked) [drawing 25] |  |  |  | Succinate oxidase activity [oxygen consumption] [1]: 12.5 (n atoms oxygen) min. per mg p
23 | COC1=C(OC)C(=O)C(C/C=C(\C)CCCO)=C(C)C1=O [drawing 28 R: H3 CO] |  |  |  | Emax at 30 µg/mL [5]: 85.5%; Emax at 100 µg/mL [5]: 100%
24 | CC1=C(C)C(=O)C(C/C=C(\C)CCCO)=C(C)C1=O [drawing 28 R: H3 C] |  |  |  | Emax at 30 µg/mL [5]: 67%; Emax at 100 µg/mL [5]: 100%
25 | Cn1c(=O)c2[nH]cnc2n(C)c1=O [theophylline, reference compound] |  |  | 32 | Emax at 30 µg/mL [5]: 60.4%; Emax at 100 µg/mL [5]: 93%
